Each structure is given as a SMILES string.

The term melting point denotes the temperature of the solid-liquid transition. On to `O=C(O)C1=Cc2cc(F)ccc2OC1`, for which the melting point lay within 209 to 211 °C.

In turn, `CCOC(=O)/C(C#N)=C/Nc1cc(Cl)ccc1OC` showed a melting point of 132 to 134 °C.

Consider `CC(C)C(NC(N)=O)C(=O)O` (configuration not stated), for which the melting point lay within 203 to 207 °C.

The compound `O=C(O)c1ccc(-c2ccccc2Cl)o1` returned a melting point of 210 to 212 °C.

On to `O=[N+]([O-])c1ccc(-c2cn[nH]c2)cc1`, for which the melting point is 205 to 207 °C.

`COc1cc(CC#N)cc(Br)c1OC(F)F`: the melting point lay within 200 to 203 °C.

Regarding `Nc1cccc(-c2nnc[nH]2)c1`, the melting point lay within 182 to 184 °C.

Turning to `CN(C)c1ccc(NC(=O)NN)cc1`, the melting point lay in the range of 140 to 142 °C.

`O=C(O)c1cc2c(s1)CCC2` gave a melting point of 199 to 201 °C.

The compound `CC(=O)N1CCN(CC#N)CC1` came in with a melting point of 107 to 109 °C.

The compound `Cc1nn(C)c2c1NC(=O)CO2` showed a melting point of 219 to 221 °C.

`OC(CC1CCCCCN1)c1cccs1` (configuration not stated): the melting point lay in the range of 60 to 62 °C.

In turn, `CCOC(=O)Cn1ncc2ccc(N)cc21` had a melting point of 114 to 116 °C.

Compound `CCOC(=O)c1c(C(C)(C)C)csc1N` came in with a melting point of 56 to 58 °C.

Turning to `C#CCN1C(=O)C=CC1=O`, the melting point was in the range of 46 to 48 °C.

Turning to `COC(=O)c1c(O)c(Cl)cc(Cl)c1Cl`, the melting point was in the range of 113 to 115 °C.

The compound `Nc1ccc(NC(=O)NC2CC2)cc1` registered a melting point of 161 to 163 °C.

The compound `CC(C)(C)OC(=O)NC1CCC(O)CC1` (configuration not stated) yielded a melting point of 169 to 171 °C.

`CCCCn1c(N)c(NC)c(=O)[nH]c1=O` gave a melting point of 201 to 203 °C.

The compound `COC(=O)c1sc2ccccc2c1S(=O)(=O)Cl` displayed a melting point of 98 to 100 °C.

Turning to `Cc1nn(Cc2ccc(F)cc2)c2[nH]nc(N)c12`, the melting point fell in the range of 140 to 142 °C.

`O=C(O)CCNC(=O)c1cc(F)ccc1Br`: the melting point is 112 to 114 °C.

In turn, `COc1ccccc1CNC(=O)n1ccnc1` showed a melting point of 128 to 130 °C.

`O=C(O)c1cccc(OC2CCCCC2)c1`: the melting point was in the range of 75 to 77 °C.

Consider `COC(=O)c1sc(-c2cccc(Cl)c2)cc1N`, for which the melting point was 100 to 102 °C.

`Cc1nc2ncnn2c(C)c1CC(=O)O` came in with a melting point of 220 to 222 °C.

`Clc1ccc2nc(-c3ccccn3)[nH]c2c1` gave a melting point of 133 to 135 °C.

In turn, `O=C1CN(CCOc2ccc(Br)cc2)CCN1` showed a melting point of 111 to 113 °C.

In turn, `NC(=O)c1ccc(NCC(=O)O)cc1` had a melting point of 271 to 273 °C.

`NC(=O)CCCOc1ccc(F)cc1` came in with a melting point of 125 to 127 °C.

On to `CC(C)(C)OC(=O)NCCN=C=O`, for which the melting point was 102 to 104 °C.

In turn, `CC(C)(C)OC(=O)NC1CCC(=O)CC1` yielded a melting point of 113 to 115 °C.

`NC(=S)Cc1ccc(Br)cc1` gave a melting point of 146 to 148 °C.

`COC(=O)c1c(-c2ccccc2Cl)csc1N` came in with a melting point of 92 to 96 °C.

`O=C(CCl)Nc1ccc(S(=O)(=O)N2CCCC2)cc1` displayed a melting point of 185 to 187 °C.

For the compound `NC(=S)CN1CCOCC1`, the melting point lay in the range of 178 to 180 °C.

`C/C(=N\O)c1ccc(-c2ccc(F)cc2)s1` returned a melting point of 139 to 141 °C.

Take `Cc1ncc(C=O)n1-c1ccccc1`: the melting point was 64 to 66 °C.

`O=Cc1csc(-c2ccccn2)n1` had a melting point of 130 to 132 °C.

Turning to `COc1ccc(CCN)c(O)c1`, the melting point is 98 to 100 °C.

As for `O=C(c1cccs1)c1cccc2ccccc12`, the melting point lay in the range of 65 to 67 °C.

Take `Cc1cc(C=O)c(C)n1-c1ccc(F)cc1`: the melting point is 100 to 102 °C.

Take `COC(=O)CN(C)c1ccc(Br)cn1`: the melting point lay within 92 to 94 °C.

As to `ClCc1coc(-c2cccs2)n1`, the melting point was 45 to 57 °C.

With `O=C(Cc1ccccc1)NC1CCNCC1`, the melting point lay in the range of 139 to 141 °C.

Turning to `CCOC(=O)C(NS(C)(=O)=O)C(=O)OCC`, the melting point fell in the range of 72 to 74 °C.

The compound `CNS(=O)(=O)c1cccc(C(C)=O)c1` showed a melting point of 96 to 98 °C.

Compound `COC(=O)c1cc(F)c(Br)c([N+](=O)[O-])c1` returned a melting point of 66 to 68 °C.

In turn, `Nc1ccc2c(c1)NC(=O)CC2` yielded a melting point of 210 to 212 °C.

In turn, `CN1CCCc2ccc(S(=O)(=O)Cl)cc21` displayed a melting point of 64 to 66 °C.

As for `O=c1[nH]c2ccc(NCc3ccccc3Cl)cc2[nH]1`, the melting point was 227 to 229 °C.

With `CS(=O)(=O)Nc1nnc(N)s1`, the melting point was in the range of 251 to 253 °C.

`COc1ccc(N)c(C(=O)NC2CC2)c1`: the melting point lay in the range of 137 to 139 °C.

Turning to `O=C(O)c1ccc(NS(=O)(=O)c2ccc(F)cc2)cc1`, the melting point was 240 to 242 °C.

`O=C(O)c1cc(Br)ccc1I` displayed a melting point of 120 to 122 °C.

As to `Nc1ccc(F)c(S(=O)(=O)N2CCOCC2)c1`, the melting point fell in the range of 128 to 130 °C.

For `COc1cccc(C(N)=S)c1OC`, the melting point was 146 to 148 °C.

Compound `Cc1cc(CN2CCSCC2)ccc1N` returned a melting point of 106 to 108 °C.

The compound `Nc1nnc(Cc2cccc(F)c2)s1` showed a melting point of 193 to 195 °C.

As to `Cc1cc(N)ccc1S(C)(=O)=O`, the melting point is 144 to 146 °C.

The compound `CC(=O)CN1C(=O)c2ccccc2S1(=O)=O` yielded a melting point of 144 to 146 °C.

`Cc1ccc(C(=O)Nc2cccc(C(F)(F)F)c2)cc1O` registered a melting point of 169 to 171 °C.

For the compound `CC(Cl)C(=O)c1ccc2c(c1)NC(=O)CO2` (configuration not stated), the melting point lay within 186 to 188 °C.

In the case of `CN(C)S(N)(=O)=O`, the melting point lay within 94 to 96 °C.

With `Nc1ccc(S(=O)(=O)Nc2cccc(C(F)(F)F)c2)cc1N`, the melting point was 143 to 147 °C.

`Cc1ccc(/C=C/C(=O)O)cc1Cl` gave a melting point of 194 to 196 °C.

The compound `CC(Cc1ccc(Cl)cc1)C(=O)O` (configuration not stated) gave a melting point of 49 to 51 °C.

On to `CN(CC(=O)O)C(=O)c1ccc(Br)o1`, for which the melting point was in the range of 110 to 112 °C.

Regarding `NC(=O)c1cc(-c2ccccc2)sc1NC(=O)CCl`, the melting point lay in the range of 208 to 210 °C.

`Nc1ccc(CCN2CCOC2=O)cc1` showed a melting point of 192 to 194 °C.

`N#Cc1ccc(CSc2ccccc2C(=O)O)cc1` showed a melting point of 208 to 210 °C.

In the case of `CC(=O)c1cc(CCC(=O)O)oc1C`, the melting point fell in the range of 90 to 95 °C.

`O=C(O)Cc1csc(-c2ccc(O)cc2)n1` returned a melting point of 97 to 99 °C.

In the case of `N#Cc1[nH]c(=O)n(Cc2ccccc2)c1NCc1ccccc1`, the melting point was 140 to 142 °C.

For `CSC(C(=O)O)C(C)(C)C` (configuration not stated), the melting point is 83 to 85 °C.

Compound `CNC(=O)CNC(=S)NN` came in with a melting point of 156 to 158 °C.

The compound `Nc1ccc(S(=O)(=O)NCc2ccc(F)cc2)cc1` returned a melting point of 136 to 138 °C.

In the case of `Nc1cc(-c2cc(Cl)cc(Cl)c2)[nH]n1`, the melting point lay in the range of 159 to 161 °C.

`O=C(O)c1ccc(NC(=O)c2ccc(Br)o2)cc1` registered a melting point of 276 to 278 °C.

As to `CCCCNS(=O)(=O)c1ccc(N)c(N)c1`, the melting point fell in the range of 48 to 52 °C.

`CCCN1CCCC(C(=O)O)C1` (configuration not stated) had a melting point of 137 to 139 °C.

Compound `FC(F)(F)c1ccccc1Nc1nnc(S)s1` displayed a melting point of 197 to 199 °C.

`Cc1ccccc1-n1ccnc1S` gave a melting point of 245 to 247 °C.

For the compound `O=C(O)c1nnn(-c2cccc(F)c2)c1C1CC1`, the melting point was in the range of 149 to 151 °C.

Compound `CC(=O)CC(=O)c1ccc(Cl)cc1` displayed a melting point of 67 to 71 °C.

In turn, `O=C(O)C1CCc2c(Cl)cccc21` (configuration not stated) came in with a melting point of 111 to 113 °C.

In turn, `CC(C)C(C(N)=O)c1cccnc1` (configuration not stated) yielded a melting point of 176 to 178 °C.

Compound `OC(c1ccncc1)c1ccc(F)cc1` (configuration not stated) gave a melting point of 136 to 138 °C.

For the compound `CC(=O)Nc1ccc(SCC(=O)O)cc1`, the melting point fell in the range of 156 to 158 °C.

As to `CNS(=O)(=O)c1ccc(N)cc1C`, the melting point was in the range of 117 to 119 °C.

Regarding `Clc1cc(Cl)c(SSc2cc(Cl)c(Cl)cc2Cl)cc1Cl`, the melting point was in the range of 140 to 144 °C.

The compound `O=S(=O)(CCN1CCNCC1)c1ccc(Br)cc1` returned a melting point of 99 to 101 °C.

With `N#CCc1c[nH]c2cc(Br)ccc12`, the melting point fell in the range of 112 to 114 °C.

`COc1cccc(-n2nc(C)c(CCC(=O)O)c2C)c1`: the melting point was in the range of 104 to 115 °C.

Take `CC(C)(C)c1ccc(C2(C(=O)O)CCCCC2)cc1`: the melting point lay in the range of 160 to 162 °C.

As for `Cc1ccccc1C(=O)NC(CC(C)C)C(=O)O` (configuration not stated), the melting point fell in the range of 111 to 113 °C.

For `Clc1cc2nc[nH]c2nc1Cl`, the melting point lay in the range of 119 to 121 °C.

For the compound `O=S(=O)(Nc1nc2ccccc2nc1Cl)c1ccccc1C(F)(F)F`, the melting point was in the range of 157 to 159 °C.

Compound `CS(=O)(=O)Nc1ccc(S(=O)(=O)Cl)cc1F` registered a melting point of 164 to 166 °C.

In turn, `COc1ccc(-c2ccc(C#N)c(=O)[nH]2)cc1OC` showed a melting point of 272 to 274 °C.

Take `O=C(O)c1cc(F)ccc1N1CCOCC1`: the melting point lay in the range of 158 to 160 °C.

In the case of `O=C(CCl)NC(Cc1ccccc1)c1ccccc1` (configuration not stated), the melting point was 219 to 221 °C.

In the case of `Cc1cncc(CCC(=O)O)c1`, the melting point was 99 to 101 °C.

`COC(=O)C(=O)CC(=O)c1ccc(C)cc1C`: the melting point lay in the range of 63 to 65 °C.

`CCC(C)n1nccc1N` (configuration not stated) had a melting point of 30 to 32 °C.

In turn, `COc1cccc(C2(C)NC(=O)NC2=O)c1` (configuration not stated) came in with a melting point of 119 to 121 °C.

For the compound `O=Cc1cn(-c2ccccc2)nc1-c1cccc(Br)c1`, the melting point fell in the range of 91 to 93 °C.

`CNC(=O)c1cc(Oc2cc(N)ccc2C)ccn1` showed a melting point of 141 to 143 °C.

As to `CC(Oc1ccc(F)cc1)C(=O)NN` (configuration not stated), the melting point fell in the range of 164 to 167 °C.

In the case of `O[C@@H]1CCNC1`, the melting point lay within 15 to 17 °C.

`Cc1nc(-c2ccccc2F)sc1C(C)O` (configuration not stated): the melting point lay in the range of 79 to 81 °C.

Compound `N#Cc1cccnc1Oc1ccccc1N` had a melting point of 171 to 173 °C.

In turn, `Nc1cc(Cl)c(S(N)(=O)=O)cc1[N+](=O)[O-]` had a melting point of 257 to 259 °C.

Compound `Nc1ccc([N+](=O)[O-])cc1Br` showed a melting point of 99 to 101 °C.

For `NS(=O)(=O)c1ccc(CCCl)cc1`, the melting point is 178 to 180 °C.

The compound `CC(C)=CCSc1ccccc1C(=O)O` showed a melting point of 138 to 140 °C.

As for `CCOC(=O)c1ccc(-n2c(C)nc3ccccc3c2=O)cc1`, the melting point lay within 173 to 175 °C.

In turn, `COC(C)c1ncc(C(=O)O)s1` (configuration not stated) had a melting point of 131 to 133 °C.

`O=C(O)CCC(=O)c1ccc(Cl)s1` yielded a melting point of 122 to 124 °C.

In the case of `O=C(CCCl)NCCc1ccccc1`, the melting point lay in the range of 56 to 58 °C.

With `Cc1ccc(CN)c(S(C)(=O)=O)c1`, the melting point was in the range of 32 to 34 °C.

On to `COc1ccccc1NC(=O)CC#N`, for which the melting point lay in the range of 87 to 90 °C.

The values above are taken from a melting point compilation (Tetko et al.).
